Results taken from publication PMC6913882 (ACS chemical biology, 2018).
Read-outs that look alike come from different tables or passages of the source.

Columns and labels:
Format in all cases: binding
[1] = target: T1, DNA methyltransferase-1 (mDNMT1) (Mus musculus, UniProt P13864, N1248A); assay: crystal structure at […] Å
[2] = target: T2, DNA methyltransferase-1 (mDNMT1) (Mus musculus, UniProt P13864); assay: SPR
[3] = target: T1, DNA methyltransferase-1 (mDNMT1); assay: SPR
[4] = target: T2, DNA methyltransferase-1 (mDNMT1); assay: SPR; remark: listed apart in the source
[5] = target: DNA methyltransferase-1 (mDNMT1) (Mus musculus, UniProt P13864, R1279D); assay: SPR
DNA methyltransferase-1 (mDNMT1) (Mus musculus, UniProt P13864, R1279D), sequence (P13864 731-1602 R1279D): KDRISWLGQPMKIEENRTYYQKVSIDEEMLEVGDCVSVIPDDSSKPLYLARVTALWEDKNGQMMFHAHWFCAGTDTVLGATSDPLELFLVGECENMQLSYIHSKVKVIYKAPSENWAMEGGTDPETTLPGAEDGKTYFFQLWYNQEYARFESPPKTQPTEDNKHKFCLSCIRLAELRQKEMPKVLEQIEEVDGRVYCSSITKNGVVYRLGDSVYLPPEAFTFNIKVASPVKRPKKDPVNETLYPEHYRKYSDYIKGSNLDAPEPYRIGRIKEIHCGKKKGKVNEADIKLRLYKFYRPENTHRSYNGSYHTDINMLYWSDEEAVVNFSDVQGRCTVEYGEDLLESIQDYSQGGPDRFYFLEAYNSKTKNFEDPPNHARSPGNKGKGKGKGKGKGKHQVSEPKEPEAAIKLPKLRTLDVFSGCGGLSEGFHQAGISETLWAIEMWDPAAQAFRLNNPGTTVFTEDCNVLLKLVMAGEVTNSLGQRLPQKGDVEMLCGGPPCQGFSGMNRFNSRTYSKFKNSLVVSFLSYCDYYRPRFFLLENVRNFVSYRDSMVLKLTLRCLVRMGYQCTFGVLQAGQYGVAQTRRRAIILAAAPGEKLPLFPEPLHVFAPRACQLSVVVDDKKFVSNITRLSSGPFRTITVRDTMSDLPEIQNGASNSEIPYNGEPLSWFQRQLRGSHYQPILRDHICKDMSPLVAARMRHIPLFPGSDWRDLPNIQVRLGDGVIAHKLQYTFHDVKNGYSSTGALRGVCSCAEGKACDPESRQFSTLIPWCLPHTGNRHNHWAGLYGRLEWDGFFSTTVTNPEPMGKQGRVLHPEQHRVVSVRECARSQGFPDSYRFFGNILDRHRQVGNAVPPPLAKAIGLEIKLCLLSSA

T2 sequence (P13864 731-1602): as the sequence (P13864 731-1602 R1279D) above, with D549R counted along it
T1 sequence (P13864 731-1602 N1248A): as the sequence (P13864 731-1602 R1279D) above, with N518A, D549R counted along it

Kd [2] [µM] | Kd [3] [µM] | Kd [4] [µM] | Kd [5] [µM] | SMILES | Kd [1]
~0.47 | – | – | – | Nc1ncnc2c1ncn2[C@@H]1O[C@H](CSCC[C@H](N)C(=O)O)[C@@H](O)[C@H]1O [AdoHcy] | The N1248A mutant was bound to AdoHcy (Figure S5A)
– | 6.61 | ~5.75 | 3.78 | C[S+](CC[C@H](N)C(=O)[O-])C[C@H]1O[C@@H](n2cnc3c(N)ncnc32)[C@H](O)[C@@H]1O (some centres unmarked) [AdoMet] | –
